Among the test systems are CCRF-CEM leukemia; OVCAR-5 ovarian; HL-60(TB) leukemia; MALME-3M melanoma; NCI-H23 lung; HOP-92 NSCLC; HOP-62 NSCLC; SK-MEL-28 melanoma; PC-3 prostate; MDA-N.
Common to all, as to assay: growth of human tumour cells (NCI), 48 h

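Values below derive from 48-hour exposures of cells grown in 96-well plates, with endpoints linearly interpolated between the two concentrations bracketing the appropriate inhibition level. At the GI50, growth is halved. TGI: concentration producing complete growth inhibition.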

For `COc1cccc(-c2nccc3c(OCc4ccccc4)c(OC)c(OC)cc23)c1`, the TGI in the assay on CCRF-CEM leukemia, with OVCAR-5 ovarian, with HL-60(TB) leukemia, in the assay on MALME-3M melanoma, with NCI-H23 lung and in the assay on HOP-92 NSCLC was > 100 µM each time. Moreover, the TGI in the assay on HOP-62 NSCLC was > 100 µM.

As to `CC(=O)OC(C)(C)CCC(=O)[C@](C)(O)[C@H]1[C@H](O)C[C@@]2(C)[C@@H]3CC=C4C(C)=C(OC5OC(CO)C(O)C(O)C5O)C(=O)C[C@@H]4[C@]3(C)C(=O)C[C@]12C` (stereo not given in full), the TGI with CCRF-CEM leukemia, in the assay with OVCAR-5 ovarian, in the assay with MALME-3M melanoma, in the assay with NCI-H23 lung, in the assay on SK-MEL-28 melanoma and in the assay on HOP-92 NSCLC was > 100 µM each time. Also, the TGI in the assay with PC-3 prostate, with MDA-N and with HOP-62 NSCLC was > 100 µM throughout.

For `CC1=CCC[C@H]2[C@](C)(CC3=CC(=O)C(Sc4ccccc4)=CC3=O)[C@@H](C)CC[C@]12C`, the values for the GI50 in the assay on CCRF-CEM leukemia, in the assay with NCI-H23 lung and in the assay on HOP-92 NSCLC were 3.89 µM, 14.7 µM and 16.8 µM, respectively. Moreover, the TGI came out at 17.4 µM in the assay with CCRF-CEM leukemia; 32.1 µM in the assay on OVCAR-5 ovarian; 28.2 µM in the assay on NCI-H23 lung; 35.7 µM in the assay with SK-MEL-28 melanoma; 31.9 µM with HOP-92 NSCLC; 82 µM in the assay with PC-3 prostate. Moreover, the TGI in the assay with MDA-N came to 32.4 µM; in the assay on HOP-62 NSCLC it was 32.6 µM.

For the compound `O=C(c1ccc(O)c([N+](=O)[O-])c1)c1ccc(O)c([N+](=O)[O-])c1`, the TGI with CCRF-CEM leukemia was > 100 µM; with OVCAR-5 ovarian, > 100 µM; in the assay with MALME-3M melanoma it was 98.6 µM; in the assay with NCI-H23 lung, > 100 µM; in the assay with SK-MEL-28 melanoma it was > 100 µM; in the assay on HOP-92 NSCLC, > 100 µM. The TGI with PC-3 prostate, with MDA-N and with HOP-62 NSCLC was > 100 µM in each case.

`O=C(O)CNC(=O)c1ccc2cc(C(=O)N3CC(CCl)c4ccc([N+](=O)[O-])cc43)[nH]c2c1` (stereo not given): the TGI in the assay with CCRF-CEM leukemia, with OVCAR-5 ovarian, with HL-60(TB) leukemia, in the assay on NCI-H23 lung, in the assay on HOP-92 NSCLC and in the assay on PC-3 prostate was > 100 µM in each case. Moreover, the TGI in the assay with MDA-N is > 100 µM.

On to `Clc1ccc(C2CC(c3cccc(Nc4ccncc4)c3)=NN2c2cc(Cl)cc(Cl)c2)cc1` (stereo not given), for which the GI50 in the assay with CCRF-CEM leukemia was 3.52 µM; with OVCAR-5 ovarian it was 1.78 µM; in the assay with HL-60(TB) leukemia it was 2.2 µM; in the assay on MALME-3M melanoma, 1.77 µM; with NCI-H23 lung it was 1.71 µM; in the assay with SK-MEL-28 melanoma, 1.76 µM. For the same compound, the figures for the GI50 in the assay with HOP-92 NSCLC and in the assay on PC-3 prostate were 1.51 µM and 1.69 µM, respectively. In addition, the TGI was > 100 µM with CCRF-CEM leukemia; 3.33 µM in the assay on OVCAR-5 ovarian; 5.05 µM in the assay on HL-60(TB) leukemia; 3.68 µM in the assay with MALME-3M melanoma; 3.34 µM in the assay on NCI-H23 lung; 3.39 µM in the assay on SK-MEL-28 melanoma. Further, the TGI in the assay with HOP-92 NSCLC stood at 2.99 µM; in the assay on PC-3 prostate it was 3.29 µM.

As for `N#CC[N+]1(Cc2ccccn2)CCCC1`, the TGI in the assay on OVCAR-5 ovarian, in the assay on HL-60(TB) leukemia, with MALME-3M melanoma, in the assay on NCI-H23 lung, with SK-MEL-28 melanoma and with HOP-92 NSCLC was > 100 µM in each case. For the same compound, the TGI with PC-3 prostate, with MDA-N and in the assay with HOP-62 NSCLC was > 100 µM throughout.

For `C[n+]1c2ccccc2c(/C=N\NS(=O)(=O)c2ccc(Cl)cc2)c2ccccc21`, the TGI in the assay with CCRF-CEM leukemia is > 100 µM; in the assay with OVCAR-5 ovarian, > 100 µM; with HL-60(TB) leukemia, 88.4 µM; in the assay on MALME-3M melanoma, > 100 µM; with NCI-H23 lung, > 100 µM; in the assay with SK-MEL-28 melanoma it was > 100 µM. Besides, the TGI in the assay on HOP-92 NSCLC and with HOP-62 NSCLC was > 100 µM each time.

Turning to `O=[N+]([O-])c1ccc(N2N=C(c3ccc4ccccc4c3O)CC2c2ccc(Cl)cc2)c([N+](=O)[O-])c1` (stereo not given), the TGI was 42.7 µM in the assay with CCRF-CEM leukemia; > 100 µM in the assay with OVCAR-5 ovarian; > 100 µM in the assay on MALME-3M melanoma; > 100 µM with NCI-H23 lung; > 100 µM with SK-MEL-28 melanoma; > 100 µM in the assay with HOP-92 NSCLC. Further, the TGI in the assay with PC-3 prostate is > 100 µM; in the assay on MDA-N it was 30.8 µM; in the assay with HOP-62 NSCLC, > 100 µM.

Turning to `CCCN(CCC)C1CCc2c(ccc3cc[nH]c23)C1` (stereo not given), the TGI in the assay on CCRF-CEM leukemia is 73.3 µM; in the assay with OVCAR-5 ovarian, > 100 µM; in the assay with MALME-3M melanoma it was > 100 µM; with NCI-H23 lung it was > 100 µM; in the assay on SK-MEL-28 melanoma it was 89.4 µM; with HOP-92 NSCLC, > 100 µM. Also, the TGI in the assay with PC-3 prostate, in the assay with MDA-N and in the assay on HOP-62 NSCLC was > 100 µM throughout.

In the case of `N[C@H](CCC(=O)NCP(=O)(O)O)C(=O)O`, the TGI in the assay with OVCAR-5 ovarian, in the assay with HL-60(TB) leukemia, with MALME-3M melanoma, with NCI-H23 lung, in the assay with SK-MEL-28 melanoma and in the assay with PC-3 prostate was > 100 µM throughout. For the same compound, the TGI with MDA-N and in the assay on HOP-62 NSCLC was > 100 µM in each case.

`CCN(CC)CCOc1ccc(C(O)(Cc2ccc(OC)cc2)c2ccccc2)cc1` (stereo not given): the TGI came to 44.9 µM in the assay on CCRF-CEM leukemia; 61.5 µM with OVCAR-5 ovarian; 24.9 µM in the assay with HL-60(TB) leukemia; 33 µM in the assay with MALME-3M melanoma; 45.1 µM in the assay on NCI-H23 lung; 27 µM in the assay with SK-MEL-28 melanoma. For the same compound, the TGI came to 46 µM in the assay on HOP-92 NSCLC and 32.5 µM with HOP-62 NSCLC.

For the compound `O=C1C2=C(SCCS2)C(=O)c2c(Sc3ccc(Cl)cc3)c(Sc3ccc(Cl)cc3)c(Sc3ccc(Cl)cc3)c(Sc3ccc(Cl)cc3)c21`, the TGI in the assay with CCRF-CEM leukemia is 23.8 µM; with OVCAR-5 ovarian, > 100 µM; in the assay on MALME-3M melanoma it was 69.8 µM; in the assay on NCI-H23 lung, > 100 µM; in the assay with PC-3 prostate, > 100 µM; with MDA-N, > 100 µM. Moreover, the TGI with HOP-62 NSCLC was > 100 µM.

Consider `COP(=O)(O)C(N)Cc1c[nH]c2ccccc12` (stereo not given), for which the TGI in the assay on CCRF-CEM leukemia, in the assay on OVCAR-5 ovarian, with NCI-H23 lung, in the assay on SK-MEL-28 melanoma, with HOP-92 NSCLC and in the assay with PC-3 prostate was > 100 µM throughout. Moreover, the TGI in the assay on MDA-N and in the assay on HOP-62 NSCLC was > 100 µM in each case.

Source of the values: PubChem BioAssay (NCI).
